Patent US20250145641A1, “FUSED BICYCLIC DERIVATIVE, PHARMACEUTICALLY ACCEPTABLE SALT, CRYSTAL FORM THEREOF AND PREPARATION METHOD THEREFOR” (JIANGSU HENGRUI PHARMACEUTICALS CO., LTD., priority 2021, published 2025)

How the values were obtained:
Format in all cases: physicochemical
[1] = Hygroscopicity study (dynamic vapor sorption); conditions: DVS, 25° C.; for Crystal form after hygroscopicity test: two cycles
Method: DVS is dynamic vapor sorption: The detection was carried out using SMS DVS Advantage at 25° C. with a humidity change of 50%-95%-0%-95%-50% in steps of 10% (the last step was 5%) (the specific range of humidity was subject to the corresponding pattern, and most methods were listed here), and the judgment standard was that dm/dt was not greater than 0.002%.
Using Surface Measurement Systems advantage 2, starting at a humidity of 50% at 25° C., the humidity range was 0%-95%, the step was 10%, the judgment standard was that the mass change dM/dT of each gradient was less than 0.002%, the running time TMAX of each humidity gradient was 360 min, with two cycles, and the specific results are shown in Table 8.

[2] = Stability of crystal form, influencing factor experiment; conditions: for physical and chemical stability (conclusion): illumination, 40° C. and 60° C., humidity 75% and 92.5%
Method: The crystal form A of hydrochloride, the crystal form A of methanesulfonate, and the crystal form α of the acetate were placed flat and left open. The stability of the samples was investigated under conditions of illumination (4500 Lux), high temperature (40° C., 60° C.), and high humidity (RH 75%, RH 92.5%), and the sampling investigation period was 30 days.

[3] = Long-term/accelerated stability study; conditions: for physical and chemical stability (conclusion): 25° C./60 RH and 40° C./75 RH, 6 months
Method: The crystal form A of hydrochloride, the crystal form A of methanesulfonate, and the crystal form α of acetate were placed at 25° C./60% RH and 40° C./75% RH to investigate the stability, and the results are shown in Tables 10, 11, and 12 below.

SMILES: CC(=O)O.CC(C)NCC(C(=O)N1C2CCC1CN(c1ncnc3c1C(C)(C)C(=O)N3)C2)c1ccc(Cl)cc1 (stereo not drawn) [Crystal form α of acetate]
- mass change 0% RH-80.0% RH [1]: 0.50%
- mass change 0.0% RH-95.0% RH [1]: 0.66%
- Crystal form after hygroscopicity test [1]: Untransformed
- Crystal form ([2]; 40° C., 5 days, open): Untransformed
- Purity % ([2]; 40° C., 5 days, open): 99.6%
- Crystal form ([2]; 40° C., 10 days, open): Untransformed
- Purity % ([2]; 40° C., 10 days, open): 99.6%
- Crystal form ([2]; 40° C., 30 days, open): Untransformed
- Purity % ([2]; 40° C., 30 days, open): 99.0%
- Crystal form ([2]; 60° C., 5 days, open): Untransformed
- Purity % ([2]; 60° C., 5 days, open): 99.6%
- Crystal form ([2]; 60° C., 10 days, open): Untransformed
- Purity % ([2]; 60° C., 10 days, open): 99.5%
- Crystal form ([2]; 60° C., 30 days, open): Untransformed
- Purity % ([2]; 60° C., 30 days, open): 98.8%
- Crystal form ([2]; 75% RH, 5 days, open): Untransformed
- Purity % ([2]; 75% RH, 5 days, open): 99.7%
- Crystal form ([2]; 75% RH, 10 days, open): Untransformed
- Purity % ([2]; 75% RH, 10 days, open): 99.7%
- Crystal form ([2]; 75% RH, 30 days, open): Untransformed
- Purity % ([2]; 75% RH, 30 days, open): 99.7%
- Crystal form ([2]; 92.5% RH, 5 days, open): Untransformed
- Purity % ([2]; 92.5% RH, 5 days, open): 99.7%
- Crystal form ([2]; 92.5% RH, 10 days, open): Untransformed
- Purity % ([2]; 92.5% RH, 10 days, open): 99.7%
- Crystal form ([2]; 92.5% RH, 30 days, open): Untransformed
- Purity % ([2]; 92.5% RH, 30 days, open): 99.7%
- Crystal form ([2]; 4500 Lux, 5 days, open): Untransformed
- Purity % ([2]; 4500 Lux, 5 days, open): 99.7%
- Crystal form ([2]; 4500 Lux, 10 days, open): Untransformed
- Purity % ([2]; 4500 Lux, 10 days, open): 99.7%
- Crystal form ([2]; 4500 Lux, 30 days, open): Untransformed
- Purity % ([2]; 4500 Lux, 30 days, open): 99.6%
- Purity % ([2]; Onset, 0 days): 99.7%
- physical and chemical stability (conclusion) ([2]; 30 days): good physical stability and good chemical stability under high humidity and illumination conditions
- Crystal form ([3]; 25° C./60% RH): Untransformed
- Purity % 1 month ([3]; 25° C./60% RH): 99.7%
- Purity % 2 month ([3]; 25° C./60% RH): 99.7%
- Purity % 3 month ([3]; 25° C./60% RH): 99.7%
- Purity % 6 month ([3]; 25° C./60% RH): 99.7%
- Purity % Onset ([3]; 25° C./60% RH): 99.7%
- physical and chemical stability (conclusion) [3]: good physical and chemical stability
- Crystal form ([3]; 40° C./75% RH): Untransformed
- Purity % 1 month ([3]; 40° C./75% RH): 99.7%
- Purity % 2 month ([3]; 40° C./75% RH): 99.6%
- Purity % 3 month ([3]; 40° C./75% RH): 99.6%
- Purity % 6 month ([3]; 40° C./75% RH): 99.5%
- Purity % Onset ([3]; 40° C./75% RH): 99.7%

SMILES: CC(C)NCC(C(=O)N1C2CCC1CN(c1ncnc3c1C(C)(C)C(=O)N3)C2)c1ccc(Cl)cc1.CS(=O)(=O)O (stereo not drawn) [Crystal form A of methanesulfonate]
- mass change 0% RH-80.0% RH [1]: 0.31%
- mass change 0.0% RH-95.0% RH [1]: 0.43%
- Crystal form after hygroscopicity test [1]: Untransformed
- Crystal form ([2]; 40° C., 5 days, open): Untransformed
- Purity % ([2]; 40° C., 5 days, open): 99.9%
- Crystal form ([2]; 40° C., 10 days, open): Untransformed
- Purity % ([2]; 40° C., 10 days, open): 99.9%
- Crystal form ([2]; 40° C., 30 days, open): Untransformed
- Purity % ([2]; 40° C., 30 days, open): 99.9%
- Crystal form ([2]; 60° C., 5 days, open): Untransformed
- Purity % ([2]; 60° C., 5 days, open): 99.9%
- Crystal form ([2]; 60° C., 10 days, open): Untransformed
- Purity % ([2]; 60° C., 10 days, open): 99.9%
- Crystal form ([2]; 60° C., 30 days, open): Untransformed
- Purity % ([2]; 60° C., 30 days, open): 99.9%
- Crystal form ([2]; 75% RH, 5 days, open): Untransformed
- Purity % ([2]; 75% RH, 5 days, open): 99.9%
- Crystal form ([2]; 75% RH, 10 days, open): Untransformed
- Purity % ([2]; 75% RH, 10 days, open): 99.9%
- Crystal form ([2]; 75% RH, 30 days, open): Untransformed
- Purity % ([2]; 75% RH, 30 days, open): 99.9%
- Crystal form ([2]; 92.5% RH, 5 days, open): Untransformed
- Purity % ([2]; 92.5% RH, 5 days, open): 99.9%
- Crystal form ([2]; 92.5% RH, 10 days, open): Untransformed
- Purity % ([2]; 92.5% RH, 10 days, open): 99.9%
- Crystal form ([2]; 92.5% RH, 30 days, open): Untransformed
- Purity % ([2]; 92.5% RH, 30 days, open): 99.9%
- Crystal form ([2]; 4500 Lux, 5 days, open): Untransformed
- Purity % ([2]; 4500 Lux, 5 days, open): 99.9%
- Crystal form ([2]; 4500 Lux, 10 days, open): Untransformed
- Purity % ([2]; 4500 Lux, 10 days, open): 99.9%
- Crystal form ([2]; 4500 Lux, 30 days, open): Untransformed
- Purity % ([2]; 4500 Lux, 30 days, open): 99.9%
- Purity % ([2]; Onset, 0 days): 99.9%
- physical and chemical stability (conclusion) ([2]; 30 days): good physical and chemical stability
- Crystal form ([3]; 25° C./60% RH): Untransformed
- Purity % 1 month ([3]; 25° C./60% RH): 99.9%
- Purity % 2 month ([3]; 25° C./60% RH): 99.8%
- Purity % 3 month ([3]; 25° C./60% RH): 99.8%
- Purity % 6 month ([3]; 25° C./60% RH): 99.9%
- Purity % Onset ([3]; 25° C./60% RH): 99.9%
- physical and chemical stability (conclusion) [3]: good physical and chemical stability
- Crystal form ([3]; 40° C./75% RH): Untransformed
- Purity % 1 month ([3]; 40° C./75% RH): 99.9%
- Purity % 2 month ([3]; 40° C./75% RH): 99.8%
- Purity % 3 month ([3]; 40° C./75% RH): 99.8%
- Purity % 6 month ([3]; 40° C./75% RH): 99.8%
- Purity % Onset ([3]; 40° C./75% RH): 99.9%
